From patent US10544130B2, “Metallo-beta-lactamase inhibitors” (priority 2015, dated 2020)

Key:
[1] = tested on: Klebsiella pneumoniae expressing VIM-1 (IHMA599644); type: cell-based; conditions: with imipenem 1 μg/ml; 95% inhibition of bacterial growth
Procedure, shortened: (§1)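 Clinical strains were grown overnight at 35 °C on blood agar, adjusted to set OD600 in saline and diluted 1:100 into 1.1× CAMHB. Inhibitor was tested with and without imipenem at 1 μg/ml. After 22–24 h at 35 °C, absorbance was read to give synergistic concentration.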

[2] = tested on: Serratia marcescens expressing IMP-1 (CL5741); type: cell-based; conditions: with imipenem 1 μg/ml; 95% inhibition of bacterial growth
Procedure, shortened: as §1

[3] = tested on: Pseudomonas aeruginosa PAO1 MB9798 (efflux+, IMP-1); conditions: ratio MITC95 PA 9798/MITC95 PA 9799; imipenem at 2 μg/mL
Procedure, shortened: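 Isogenic PAO1 pair (efflux+ MB9798, efflux− MB9799, both IMP-1) tested by microbroth MIC with fixed imipenem and/or ceftazidime, usually at CLSI breakpoint, plus fixed class A/C inhibitor against AmpC. MBL inhibitor titrated; concentration restoring susceptibility recorded and fold difference between strains taken as efflux extent.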

Row | Structure (SMILES) | Klebsiella pneumoniae (VIM-1) MITC95 [1] [µM] | Serratia marcescens (IMP-1) MITC95 [2] [µM] | Efflux ratio [3]
1 | Nc1nc2c(-c3ccc(S(=O)(=O)NC[C@@H]4CCCN4)c(S(N)(=O)=O)c3-c3nn[nH]n3)cccc2[nH]1 [Example 262, (S)-4-(2-amino-1H-benzo[d]imidazol-4-yl)-N1-(pyrrolidin-2-ylmethyl)-3-(2H-tetrazol-5-yl)benzene-1,2-disulfonamide] | 0.7813 | 0.7813 | 1.00
2 | NC[C@@H](CO)NS(=O)(=O)c1ccc(-c2ccnc(N)c2)c(-c2nn[nH]n2)c1S(N)(=O)=O [Example 380, (S)—N1-(1-amino-3-hydroxypropan-2-yl)-4-(2-aminopyridin-4-yl)-3-(2H-tetrazol-5-yl)benzene-1,2-disulfonamide] | 1.563 | 0.7813 | 1.00
3 | Nc1ccc(-c2ccc(S(=O)(=O)NC[C@H](N)CO)c(S(N)(=O)=O)c2-c2nn[nH]n2)cn1 [Example 297, (S)—N^1-(2-amino-3-hydroxypropyl)-4-(6-aminopyridin-3-yl)-3-(2H-tetrazol-5-yl) benzene-1,2-disulfonamide] | 1.563 | 0.7813 | 1.00
4 | C[C@H](CN)NS(=O)(=O)c1ccc(-c2ccnc(N)c2)c(-c2nn[nH]n2)c1S(N)(=O)=O [Example 317, (R)—N1-(1-aminopropan-2-yl)-4-(2-aminopyridin-4-yl)-3-(2H-tetrazol-5-yl) benzene-1,2-disulfonamide] | 3.125 | 1.563 | 0.50
5 | CC1(NS(=O)(=O)c2ccc(-c3cccc4[nH]c(N)nc34)c(-c3nn[nH]n3)c2S(N)(=O)=O)CNC1 [Example 257, 4-(2-amino-1H-benzo[d]imidazol-4-yl)-N1-(3-methylazetidin-3-yl)-3-(2H-tetrazol-5-yl)benzene-1,2-disulfonamide] | 0.7813 | 0.7813 | 1.00
6 | N[C@@H]1CNC[C@@H]1NS(=O)(=O)c1ccc(-c2cnc3cc[nH]c3c2)c(-c2nn[nH]n2)c1S(N)(=O)=O [Example 326, N1-((3S,4R)-4-aminopyrrolidin-3-yl)-4-(1H-pyrrolo[3,2-b]pyridin-6-yl)-3-(2H-tetrazol-5-yl)benzene-1,2-disulfonamide] | 1.563 | 1.563 | 1.00
7 | NC[C@H](N)CNS(=O)(=O)c1ccc(-c2cnc3cc[nH]c3c2)c(-c2nn[nH]n2)c1S(N)(=O)=O [Example 373, (S)-N1-(2,3-diaminopropyl)-4-(1H-pyrrolo[3,2-b]pyridin-6-yl)-3-(2H-tetrazol-5-yl)benzene-1,2-disulfonamide] | 3.125 | 1.563 | 1.00
8 | NCc1csc(Nc2cccc(-c3ccc(S(=O)(=O)N[C@@H]4CCNC4)c(S(N)(=O)=O)c3-c3nn[nH]n3)c2)n1 [Example 290, (R)-3′-((4-(aminomethyl)thiazol-2-yl)amino)-N4-(pyrrolidin-3-yl)-2-(2H-tetrazol-5-yl)-[1,1′-biphenyl]-3,4-disulfonamide] | 0.7813 | 0.7813 | 2.00
9 | C[C@@H](N)CNS(=O)(=O)c1ccc(-c2ccnc(N)c2)c(-c2nn[nH]n2)c1S(N)(=O)=O [Example 422, (R)-N^1-(2-aminopropyl)-4-(2-aminopyridin-4-yl)-3-(2H-tetrazol-5-yl)benzene-1,2-disulfonamide] | 1.563 | 0.7813 | 
10 | Nc1ncc(-c2cccc(-c3ccc(S(=O)(=O)N[C@@H]4CCNC4)c(S(N)(=O)=O)c3-c3nnn[nH]3)n2)[nH]1 [Example 439, (R)-4-(6-(2-Amino-1H-imidazol-5-yl)pyridin-2-yl)-N^1-(pyrrolidin-3-yl)-3-(1H-tetrazol-5-yl)benzene-1,2-disulfonamide] | 1.563 | 1.563 | 
11 | Nc1nc2c(-c3ccc(S(=O)(=O)NC[C@H]4CCCN4)c(S(N)(=O)=O)c3-c3nn[nH]n3)cccc2[nH]1 [Example 261, (R)-4-(2-amino-1H-benzo[d]imidazol-4-yl)-N1-(pyrrolidin-2-ylmethyl)-3-(2H-tetrazol-5-yl) benzene-1,2-disulfonamide] | 0.7813 | 0.7813 | 1.00
12 | C[C@H](N)CNS(=O)(=O)c1ccc(-c2ccnc(N)c2)c(-c2nn[nH]n2)c1S(N)(=O)=O [Example 421, (S)-N^1-(2-aminopropyl)-4-(2-aminopyridin-4-yl)-3-(2H-tetrazol-5-yl)benzene-1,2-disulfonamide] | 1.563 | 0.7813 | 
13 | NCCNS(=O)(=O)c1ccc(-c2cccc3sc(CN)nc23)c(-c2nn[nH]n2)c1S(N)(=O)=O [Example 345, N^1-(2-aminoethyl)-4-(2-(aminomethyl)benzo[d]thiazol-4-yl)-3-(2H-tetrazol-5-yl)benzene-1,2-disulfonamide] | 0.7813 | 0.7813 | 1.00
14 | C[C@H](CN)NS(=O)(=O)c1ccc(-c2cccnc2NCCN)c(-c2nn[nH]n2)c1S(N)(=O)=O [Example 460, (R)-4-(2-((2-aminoethyl)amino)pyridin-3-yl)-N1-(1-aminopropan-2-yl)-3-(2H-tetrazol-5-yl)benzene-1,2-disulfonamide] | 1.563 | 1.563 | 
15 | Cc1cc(-c2ccc(S(=O)(=O)NC[C@H](O)CN)c(S(N)(=O)=O)c2-c2nn[nH]n2)cnc1N [Example 477, (R)—N1-(3-amino-2-hydroxypropyl)-4-(6-amino-5-methylpyridin-3-yl)-3-(2H-tetrazol-5-yl)benzene-1,2-disulfonamide] | 1.563 | 0.7813 | 
16 | NCCNC(=O)c1cccc(-c2ccc(S(=O)(=O)NCCN)c(S(N)(=O)=O)c2-c2nn[nH]n2)c1 [Example 334, N-(2-aminoethyl)-4′-(N-(2-aminoethyl)sulfamoyl)-3′-sulfamoyl-2′-(2H-tetrazol-5-yl)-[1,1′-biphenyl]-3-carboxamide] | 0.7813 | 0.7813 | 2.00
17 | C[C@@H](CN)NS(=O)(=O)c1ccc(-c2cccc3sc(N)nc23)c(-c2nn[nH]n2)c1S(N)(=O)=O [Example 389, 4-(2-amino-1,3-benzothiazol-4-yl)-N^1-[(1S)-2-amino-1-methylethyl]-3-(2H-tetrazol-S-yl)benzene-1,2-disulfonamide] | 3.125 | 3.125 | 
18 | Nc1nc2c(-c3ccc(S(=O)(=O)N[C@@H]4CNC[C@@H]4N)c(S(N)(=O)=O)c3-c3nn[nH]n3)cccc2[nH]1 [Example 240, 4-(2-amino-1H-benzo[d]imidazol-4-yl)-N^1-((3R,4S)-4-aminopyrrolidin-3-yl)-3-(2H-tetrazol-5-yl)benzene-1,2-disulfonamide] | 1.563 | 0.7813 | 1.00
19 | NC[C@@H](N)CNS(=O)(=O)c1ccc(-c2cccc3[nH]c(N)nc23)c(-c2nn[nH]n2)c1S(N)(=O)=O [Example 375, (R)-4-(2-amino-1H-benzo[d]imidazol-4-yl)-N1-(2,3-diaminopropyl)-3-(2H-tetrazol-5-yl)benzene-1,2-disulfonamide] | 1.563 | 1.563 | 1.00
20 | C[C@@H](CN)NS(=O)(=O)c1ccc(-c2ccc(N)nc2)c(-c2nn[nH]n2)c1S(N)(=O)=O [Example 394, (S)-N^1-(1-aminopropan-2-yl)-4-(6-aminopyridin-3-yl)-3-(2H-tetrazol-5-yl)benzene-1,2-disulfonamide] | 3.125 | 1.563 | 
21 | NCCNc1ncccc1-c1ccc(S(=O)(=O)N[C@@H]2CCNC2)c(S(N)(=O)=O)c1-c1nn[nH]n1 [Example 459, (R)-4-(2-((2-Aminoethyl)amino)pyridin-3-yl)-N1-(pyrrolidin-3-yl)-3-(2H-tetrazol-5-yl)benzene-1,2-disulfonamide] | 1.563 | 1.563 | 
22 | NCCNCCNS(=O)(=O)c1ccc(-c2ccc(N)nc2)c(-c2nn[nH]n2)c1S(N)(=O)=O [Example 482, N1-(2-(−2-amineoethylamino)ethyl)-4-(6-aminopyridin-3-yl)-3-(2H-tetrazol-5-yl)benzene-1,2-disulfonamide] | 1.563 | 0.7813 | 
